Measured values: patent US11040981B2, “Pyrrolotriazine compounds and methods of inhibiting TAM kinases” (Syros Pharmaceuticals, Inc., priority 2017, dated 2021)

Columns and labels:
MERTK = molecular target: T1, MERTK (Homo sapiens, UniProt Q12866); experiment: TR-FRET kinase activity assay, MERTK; assay type: biochemical; conditions: for IC50: TR-FRET activity assay, ATP at Km, 60 minutes, read-out: Mer IC50; for FLT3/Mer ratio (FLT3 IC50/Mer IC50): ratio calculated as FLT3 IC50/Mer IC50
T1 sequence (Q12866 21-999): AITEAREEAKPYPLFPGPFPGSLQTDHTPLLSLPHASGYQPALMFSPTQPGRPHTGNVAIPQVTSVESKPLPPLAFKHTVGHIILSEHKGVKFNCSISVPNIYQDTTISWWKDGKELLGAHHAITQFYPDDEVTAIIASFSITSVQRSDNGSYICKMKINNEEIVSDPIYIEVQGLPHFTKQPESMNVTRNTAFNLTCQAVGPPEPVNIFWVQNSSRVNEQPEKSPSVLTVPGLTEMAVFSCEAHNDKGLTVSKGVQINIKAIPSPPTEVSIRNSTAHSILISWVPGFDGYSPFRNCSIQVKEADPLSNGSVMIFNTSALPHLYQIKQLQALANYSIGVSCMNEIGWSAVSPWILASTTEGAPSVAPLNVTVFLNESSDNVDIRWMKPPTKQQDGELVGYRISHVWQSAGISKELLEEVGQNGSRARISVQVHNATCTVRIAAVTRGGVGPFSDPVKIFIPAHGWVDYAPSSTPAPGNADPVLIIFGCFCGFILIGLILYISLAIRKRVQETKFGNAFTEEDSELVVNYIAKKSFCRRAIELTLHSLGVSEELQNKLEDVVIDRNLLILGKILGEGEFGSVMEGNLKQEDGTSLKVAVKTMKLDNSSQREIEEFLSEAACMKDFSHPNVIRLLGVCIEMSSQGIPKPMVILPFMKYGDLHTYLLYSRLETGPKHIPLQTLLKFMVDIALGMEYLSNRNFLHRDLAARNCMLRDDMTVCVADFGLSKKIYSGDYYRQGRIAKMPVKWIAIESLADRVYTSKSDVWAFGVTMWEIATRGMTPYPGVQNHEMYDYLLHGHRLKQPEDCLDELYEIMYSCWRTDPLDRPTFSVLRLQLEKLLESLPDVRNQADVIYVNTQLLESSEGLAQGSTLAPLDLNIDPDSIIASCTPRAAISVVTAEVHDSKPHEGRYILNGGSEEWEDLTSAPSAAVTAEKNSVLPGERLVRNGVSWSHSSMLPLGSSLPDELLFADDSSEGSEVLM
Method in brief: (§1)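 Recombinant human kinases, fluorescent peptide substrate, ATP at Km; 1 h RT, pH 7.5. EDTA-quenched, Eu antibody added, TR-FRET read; IC50 determined.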

TYRO3 = molecular target: T2, TYRO3 (Homo sapiens, UniProt Q06418); experiment: TR-FRET kinase activity assay, TYRO3; assay type: biochemical; conditions: ATP at Km, 60 minutes
T2 sequence (Q06418 41-890): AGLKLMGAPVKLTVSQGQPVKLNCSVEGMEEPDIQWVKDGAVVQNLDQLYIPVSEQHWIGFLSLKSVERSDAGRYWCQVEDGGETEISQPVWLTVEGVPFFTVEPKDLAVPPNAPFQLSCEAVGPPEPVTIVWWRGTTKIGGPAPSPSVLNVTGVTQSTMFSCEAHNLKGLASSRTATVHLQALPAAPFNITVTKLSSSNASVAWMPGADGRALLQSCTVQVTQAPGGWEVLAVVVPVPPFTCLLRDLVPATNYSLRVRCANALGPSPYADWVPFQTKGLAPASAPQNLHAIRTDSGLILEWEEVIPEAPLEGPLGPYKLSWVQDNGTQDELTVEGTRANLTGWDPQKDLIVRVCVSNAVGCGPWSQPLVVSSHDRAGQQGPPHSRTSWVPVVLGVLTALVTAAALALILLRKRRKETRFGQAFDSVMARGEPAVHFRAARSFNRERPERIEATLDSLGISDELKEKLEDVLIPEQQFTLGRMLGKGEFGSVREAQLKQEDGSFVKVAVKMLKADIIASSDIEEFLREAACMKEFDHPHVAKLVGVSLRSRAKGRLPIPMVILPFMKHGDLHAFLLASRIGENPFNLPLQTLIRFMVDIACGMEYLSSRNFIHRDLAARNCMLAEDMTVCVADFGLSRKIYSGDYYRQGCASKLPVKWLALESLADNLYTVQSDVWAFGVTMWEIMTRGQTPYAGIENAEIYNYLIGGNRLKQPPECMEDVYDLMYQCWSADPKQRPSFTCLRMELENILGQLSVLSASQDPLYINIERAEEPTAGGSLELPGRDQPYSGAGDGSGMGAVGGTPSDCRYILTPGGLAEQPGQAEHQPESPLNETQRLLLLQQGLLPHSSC
Method in brief: as §1

Row | IC50 (MERTK) | FLT3/Mer ratio (FLT3 IC50/Mer IC50) (MERTK) | IC50 (TYRO3) | Compound
1 | ≤ 100 nM | +++ (“+++” represents a ratio of >100) | ≤ 100 nM | COC[C@H](C)Nc1ncc2c(-c3cnn(C4(C(=O)N5CCCC5)CC4)c3)cc([C@H]3CC[C@H](O)CC3)n2n1 [Compound 408]
2 | ≤ 100 nM | +++ (“+++” represents a ratio of >100) | ≤ 100 nM | CNC(=O)c1cc(-c2cc([C@H]3CC[C@H](O)CC3)n3nc(N[C@@H](C)COC(F)F)ncc23)ccn1 [Compound 411]
3 | ≤ 100 nM | +++ (“+++” represents a ratio of >100) | ≤ 100 nM | C[C@@H](CC(F)(F)F)Nc1ncc2c(C3=CCN(C(=O)OC(C)(C)C)CC3)cc([C@H]3CC[C@H](O)CC3)n2n1 [Compound 412]
4 | ≤ 100 nM | +++ (“+++” represents a ratio of >100) | ≤ 100 nM | COC[C@H](C)Nc1ncc2c(-c3cnn(C4(C(=O)N5CCOCC5)CC4)c3)cc([C@H]3CC[C@H](O)CC3)n2n1 [Compound 414]
5 | ≤ 100 nM | +++ (“+++” represents a ratio of >100) | ≤ 100 nM | COC[C@H](C)Nc1ncc2c(-c3cnn(C4(C(=O)NC(C)C)CC4)c3)cc([C@H]3CC[C@H](O)CC3)n2n1 [Compound 415]
6 | ≤ 100 nM | +++ (“+++” represents a ratio of >100) | ≤ 100 nM | COC[C@H](C)Nc1ncc2c(-c3ccnc(N[C@@H]4CCOC4)c3)cc([C@H]3CC[C@H](O)CC3)n2n1 [Compound 416]
7 | ≤ 100 nM | +++ (“+++” represents a ratio of >100) | ≤ 100 nM | COC[C@H](C)Nc1ncc2c(-c3ccnc(NC4CCOC4)c3)cc([C@H]3CC[C@H](O)CC3)n2n1 (stereo partly drawn) [Compound 418]
8 | ≤ 100 nM | +++ (“+++” represents a ratio of >100) | ≤ 100 nM | COC[C@H](C)Nc1ncc2c(-c3cnn(CS(C)(=O)=O)c3)cc([C@H]3CC[C@H](O)CC3)n2n1 [Compound 419]
9 | ≤ 100 nM | +++ (“+++” represents a ratio of >100) | ≤ 100 nM | COC[C@H](C)Nc1ncc2c(-c3cnn(CC4COC4)c3)cc([C@H]3CC[C@H](O)CC3)n2n1 [Compound 420]
10 | ≤ 100 nM | +++ (“+++” represents a ratio of >100) | ≤ 100 nM | COC[C@H](C)Nc1ncc2c(-c3cnn([C@@H]4CO[C@H]5OCC[C@H]54)c3)cc([C@H]3CC[C@H](O)CC3)n2n1 [Compound 422]

Row | Compound | IC50 (MERTK) | FLT3/Mer ratio (FLT3 IC50/Mer IC50) (MERTK) | IC50 (TYRO3)
11 | CC(=O)N1CCN(Cc2ccc(-c3cc([C@H]4CC[C@H](O)CC4)n4nc(N[C@@H](C)COC(F)F)ncc34)cc2)CC1 [Compound 413] | ≤ 100 nM | ++ (“++” represents a ratio of between 10 and 100) | ≤ 100 nM
